target: T1, Sortase A (Staphylococcus aureus, UniProt Q9S446); assay: Inhibition of Staphylococcus aures sortase A by FRET assay
T1 sequence (Q9S446 whole entry): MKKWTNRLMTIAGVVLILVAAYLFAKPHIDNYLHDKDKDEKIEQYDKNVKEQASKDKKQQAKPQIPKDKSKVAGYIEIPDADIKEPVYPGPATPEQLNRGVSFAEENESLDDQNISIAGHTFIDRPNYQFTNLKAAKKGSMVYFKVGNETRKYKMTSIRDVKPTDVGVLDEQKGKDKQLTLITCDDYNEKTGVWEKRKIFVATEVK

Going from `O=C(/C=C/c1ccco1)Nc1ccc(N2CCOCC2)c(CO)c1` to `O=C(/C=C/c1ccco1)Nc1ccc(N2CCOCC2)c(C(=O)O)c1`, the IC50 rises from 111 µM to 181 µM (1.6-fold).

`COC(=O)c1cc(NC(=O)CCc2ccco2)ccc1N1CCOCC1` and `O=C(CCc1ccco1)Nc1ccc(N2CCOCC2)c(C(=O)O)c1` cannot be ordered by IC50: greater than 600 µM for the first, greater than 600 µM for the second.

`COC(=O)c1cc(NC(=O)/C=C/c2ccco2)ccc1N1CCOCC1` and `COC(=O)c1cc(NC(=O)/C=C/c2cccs2)ccc1N1CCOCC1` are within 1.5-fold of each other in IC50: 58 µM for the first, 71 µM for the second.

Going from `Cc1ccc(S(=O)(=O)NC(=O)Nc2ccc(NC(=O)c3ccccc3O)cc2)cc1` to `O=C(O)/C=C/C(=O)Nc1ccc(NC(=O)c2ccccc2O)cc1`, the IC50 falls from 226 µM to 125 µM (1.8-fold). The second is the more potent here.

`NC(=O)c1cc(NC(=O)/C=C/c2cccs2)ccc1N1CCOCC1` and `O=C(/C=C/c1cccs1)Nc1ccc(N2CCOCC2)c(C(=O)O)c1` are within 1.5-fold of each other in IC50: 105 µM for the first, 75 µM for the second.

Going from `N=C(N)N/N=C/c1ccc(/C=N/NC(=N)N)cc1` to `COC(=O)c1cc(NC(=O)CCc2cccs2)ccc1N1CCOCC1`, the IC50 rises from 275 µM to greater than 600 µM. The first is the more potent here.

Going from `Nc1nccc(-c2ccc(NC(=O)Nc3ccc(Cl)cc3)cc2)n1` to `CS(=O)(=NC=C(C#N)C(=O)c1ccco1)c1ccc(Oc2ccc([N+](=O)[O-])cn2)cc1` (stereo not given), the IC50 falls from 400 µM to 150 µM (2.7-fold).

Going from `CS(=O)(=NC=C(C#N)C(=O)c1cccs1)c1ccc(Oc2ccc([N+](=O)[O-])cn2)cc1` (stereo not given) to `N#Cc1c(SCC(=O)c2ccc([N+](=O)[O-])cc2)[n-][s+]c1SCC(=O)c1ccc([N+](=O)[O-])cc1`, the IC50 falls from 400 µM to 97.3 µM (4.1-fold). The second is the more potent here.

`O=Cc1cc(NC(=O)/C=C/c2ccco2)ccc1N1CCOCC1` and `O=Cc1cc(NC(=O)/C=C/c2cccs2)ccc1N1CCOCC1` are within 1.5-fold of each other in IC50: 107 µM for the first, 77 µM for the second.

First: O=C(CCc1cccs1)Nc1ccc(N2CCOCC2)c(C(=O)O)c1
Second: O=C(/C=C/c1cccs1)Nc1ccc(N2CCOCC2)c(CO)c1
The IC50 of the first is higher: greater than 600 µM for the first, 73 µM for the second. The second is the more potent here.
